Assay results reported in patent US10618918B2, “Substituted boronic acids as antimicrobials” (priority 2015, dated 2020).

How the values were obtained:
[1] = system: AB1053 OXA-72; experiment: Meropenem potentiation (MPC@8), strain AB1053 OXA-72; format: cell-based, Acinetobacter baumannii; conditions: minimum BLI concentration inhibiting growth with meropenem 8 μg/mL; tested up to 20 μg/mL
[2] = system: ECL1002; experiment: Aztreonam potentiation (MPC@4), strain ECL1002; conditions: minimum BLI concentration inhibiting growth with aztreonam 4 μg/mL; tested up to 40 μg/mL
[3] = system: KP1004 KPC-2; experiment: Biapenem potentiation (MPC@1), strain KP1004 KPC-2; format: cell-based; conditions: minimum BLI concentration inhibiting growth with biapenem 1 μg/mL; tested up to 40 μg/mL
Experimental: (§1) Biapenem was present in the test medium at 1 μg/mL. […] Table 3 summarizes the BLI potency of biapenem potentiation (MPC@1) for two strains overexpressing class A (KPC) and class D (OXA-48) carbapenemases. Biapenem MIC for each strain is also shown.

[4] = system: KP1010 SHV-12; experiment: Aztreonam potentiation (MPC@4), strain KP1010 SHV-12; conditions: minimum BLI concentration inhibiting growth with aztreonam 4 μg/mL; tested up to 40 μg/mL
[5] = system: KP1009 CTX-M-15; experiment: Aztreonam potentiation (MPC@4), strain KP1009 CTX-M-15; conditions: minimum BLI concentration inhibiting growth with aztreonam 4 μg/mL; tested up to 40 μg/mL
[6] = target: T1, purified class A, C and D enzymes (β-lactamases) (Pseudomonas aeruginosa, UniProt P24735); experiment: biochemical; format: biochemical
T1 construct: rows headed: Ki (Pa-AmpC, NCF), uM; other: purified Pa-AmpC; nitrocefin (NCF) as reporter substrate
T1 sequence (P24735 whole entry): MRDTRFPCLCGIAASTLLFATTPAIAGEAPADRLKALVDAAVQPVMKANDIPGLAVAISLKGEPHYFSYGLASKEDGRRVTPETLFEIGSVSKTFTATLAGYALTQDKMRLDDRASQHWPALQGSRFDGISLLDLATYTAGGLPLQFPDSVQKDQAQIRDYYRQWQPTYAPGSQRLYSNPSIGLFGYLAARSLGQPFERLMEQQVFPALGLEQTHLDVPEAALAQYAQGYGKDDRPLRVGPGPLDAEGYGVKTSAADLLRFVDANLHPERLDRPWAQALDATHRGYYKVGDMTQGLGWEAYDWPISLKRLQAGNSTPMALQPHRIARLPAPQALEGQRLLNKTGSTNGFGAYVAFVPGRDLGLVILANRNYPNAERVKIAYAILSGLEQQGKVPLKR

[7] = target: purified class A, C and D enzymes (β-lactamases) (Klebsiella pneumoniae, UniProt Q6XEC0); experiment: biochemical; format: biochemical; conditions: purified OXA-48; nitrocefin (NCF) as reporter substrate
[8] = target: purified class A, C and D enzymes (β-lactamases) (Escherichia coli, UniProt Q9L5C7); experiment: biochemical; format: biochemical; conditions: purified CTX-M-14; nitrocefin (NCF) as reporter substrate
purified class A, C and D enzymes (β-lactamases) (Escherichia coli, UniProt Q9L5C7), sequence (Q9L5C7 entry or part of it): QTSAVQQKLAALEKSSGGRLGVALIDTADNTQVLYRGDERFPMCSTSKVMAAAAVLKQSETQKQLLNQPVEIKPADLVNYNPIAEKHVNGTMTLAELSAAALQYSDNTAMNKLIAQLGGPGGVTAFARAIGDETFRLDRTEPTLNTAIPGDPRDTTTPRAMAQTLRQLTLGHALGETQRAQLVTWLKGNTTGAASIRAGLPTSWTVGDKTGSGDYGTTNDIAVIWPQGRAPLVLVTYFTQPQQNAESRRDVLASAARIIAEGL

[9] = target: T2, purified class A, C and D enzymes (β-lactamases) (Acinetobacter baumannii, UniProt Q9L4P2); experiment: biochemical; format: biochemical; conditions: purified OXA-23; nitrocefin (NCF) as reporter substrate
T2 construct: rows headed: Ki (OXA-23, NCF), uM; other: purified OXA-23; nitrocefin (NCF) as reporter substrate
T2 sequence (Q9L4P2 whole entry): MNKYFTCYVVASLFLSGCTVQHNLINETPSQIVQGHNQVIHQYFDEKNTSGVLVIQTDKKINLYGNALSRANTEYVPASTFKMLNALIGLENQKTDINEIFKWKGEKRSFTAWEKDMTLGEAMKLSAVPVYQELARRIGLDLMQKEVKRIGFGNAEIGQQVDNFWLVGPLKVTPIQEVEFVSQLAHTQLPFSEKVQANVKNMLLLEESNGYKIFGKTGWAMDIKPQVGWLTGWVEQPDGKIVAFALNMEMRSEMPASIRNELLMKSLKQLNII

[10] = target: purified class A, C and D enzymes (β-lactamases) (Enterobacter cloacae, UniProt P05364); experiment: biochemical; format: biochemical
purified class A, C and D enzymes (β-lactamases) (Enterobacter cloacae, UniProt P05364), sequence (P05364 21-381): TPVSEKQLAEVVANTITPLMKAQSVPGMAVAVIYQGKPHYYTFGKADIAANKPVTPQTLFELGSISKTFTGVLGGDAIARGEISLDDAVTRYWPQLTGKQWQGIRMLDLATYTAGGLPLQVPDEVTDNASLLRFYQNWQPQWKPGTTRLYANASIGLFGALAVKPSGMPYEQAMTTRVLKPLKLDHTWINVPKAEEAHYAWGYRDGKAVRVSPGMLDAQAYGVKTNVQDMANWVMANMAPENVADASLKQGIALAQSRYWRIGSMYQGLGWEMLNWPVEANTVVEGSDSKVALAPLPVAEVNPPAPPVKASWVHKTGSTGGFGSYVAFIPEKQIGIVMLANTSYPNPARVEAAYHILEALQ

[11] = target: purified class A, C and D enzymes (β-lactamases) (Klebsiella pneumoniae, UniProt Q9F663); experiment: biochemical; format: biochemical; conditions: purified KPC-2; nitrocefin (NCF) as reporter substrate
[12] = system: EC1010 CMY-6; experiment: Aztreonam potentiation (MPC@4), strain EC1010 CMY-6; conditions: minimum BLI concentration inhibiting growth with aztreonam 4 μg/mL; tested up to 40 μg/mL
[13] = system: ec302 TEM-10; experiment: Aztreonam potentiation (MPC@4), strain ec302 TEM-10; conditions: minimum BLI concentration inhibiting growth with aztreonam 4 μg/mL; tested up to 40 μg/mL
[14] = system: KP1005 CTX-M-14; experiment: Tigemonam potentiation (MPC@4), strain KP1005 CTX-M-14; conditions: minimum BLI concentration inhibiting growth with tigemonam 4 μg/mL; tested up to 40 μg/mL
[15] = system: KP1086 OXA-48; experiment: Biapenem potentiation (MPC@1), strain KP1086 OXA-48; format: cell-based; conditions: minimum BLI concentration inhibiting growth with biapenem 1 μg/mL; tested up to 40 μg/mL
Experimental: as §1

[16] = system: KP1004 KPC-2; experiment: Aztreonam potentiation (MPC@4), strain KP1004 KPC-2; conditions: minimum BLI concentration inhibiting growth with aztreonam 4 μg/mL; tested up to 40 μg/mL
[17] = system: AB1054 OXA-23; experiment: Meropenem potentiation (MPC@8), strain AB1054 OXA-23; format: cell-based, Acinetobacter baumannii; conditions: minimum BLI concentration inhibiting growth with meropenem 8 μg/mL; tested up to 20 μg/mL
[18] = system: ec308 SHV-5; experiment: Aztreonam potentiation (MPC@4), strain ec308 SHV-5; conditions: minimum BLI concentration inhibiting growth with aztreonam 4 μg/mL; tested up to 40 μg/mL

| SMILES | MPM MPC8 AB1053 OXA-72 [1] | AZT MPC4 ECL1002 [2] | BPM MPC1 KP1004 KPC-2 [3] | AZT MPC4 SHV-12 KP1010 [4] | AZT MPC4 CTX-M-15 KP1009 [5] | Ki [6] | Ki (OXA-48, NCF), uM [7] | Ki (CTX-M-14, NCF), uM [8] | Ki [9] | Ki (P99, NCF), uM [10] | Ki (KPC-2, NCF), uM [11] | AZT MPC4 CMY-6 EC1010 [12] | AZT MPC4 TEM-10 ec302 [13] | TIG MPC4 CTX-M-14 KP1005 [14] | BPM MPC1 OXA-48 KP1086 [15] | AZT MPC4 KPC-2 KP1004 [16] | MPM MPC8 AB1054 OXA-23 [17] | AZT MPC4 SHV-5 ec308 [18] |
| --- | --- | --- | --- | --- | --- | --- | --- | --- | --- | --- | --- | --- | --- | --- | --- | --- | --- | --- |
| CN(C)CCOc1ccc2c(c1C(=O)[O-])O[B-](O)(O)CC2.[Na+].[Na+] [Compound 48, Disodium; 8-[2-(dimethylamino)ethoxy]-4,4-dihydroxy-5-oxa-4-boranuidabicyclo[4.4.0]deca-1(6),7,9-triene-7-carboxylate] | X (X = MPC@1 ≤ 5 μg/mL) | Y (Y = 5 μg/mL < MPC@4 ≤ 20 μg/mL) | X (X = MPC@1 ≤ 5 μg/mL) | X (X = MPC@4 ≤ 5 μg/mL) | Y (Y = 5 μg/mL < MPC@4 ≤ 20 μg/mL) | 100 to 1000 nM | X (X = Ki ≤ 0.1 μM) | X (X = Ki ≤ 0.1 μM) | < 100 nM | Y (key: X = Ki ≤ 0.1 μM; Y = 0.1 μM < Ki ≤ 1 μM; Z = Ki > 1 μM) | X (X = Ki ≤ 0.1 μM) | X (X = MPC@4 ≤ 5 μg/mL) | Y (Y = 5 μg/mL < MPC@4 ≤ 20 μg/mL) | Z (Z = MPC@4 > 20 μg/mL) | X (X = MPC@1 ≤ 5 μg/mL) | X (X = MPC@4 ≤ 5 μg/mL) | Y (Y = 5 μg/mL < MPC@1 ≤ 20 μg/mL) | Y (Y = 5 μg/mL < MPC@4 ≤ 20 μg/mL) |
| O=C([O-])c1c(CO)ccc2c1O[B-](O)(O)CC2.[Na+].[Na+] [Compound 49, Disodium; 4,4-dihydroxy-8-(hydroxymethyl)-5-oxa-4-boranuidabicyclo[4.4.0]deca-1(6),7,9-triene-7-carboxylate] | Y (Y = 5 μg/mL < MPC@1 ≤ 20 μg/mL) | X (X = MPC@4 ≤ 5 μg/mL) | X (X = MPC@1 ≤ 5 μg/mL) | X (X = MPC@4 ≤ 5 μg/mL) | X (X = MPC@4 ≤ 5 μg/mL) | < 100 nM | X (X = Ki ≤ 0.1 μM) | X (X = Ki ≤ 0.1 μM) | < 100 nM | X (key: X = Ki ≤ 0.1 μM; Y = 0.1 μM < Ki ≤ 1 μM; Z = Ki > 1 μM) | X (X = Ki ≤ 0.1 μM) | X (X = MPC@4 ≤ 5 μg/mL) | X (X = MPC@4 ≤ 5 μg/mL) | X (X = MPC@4 ≤ 5 μg/mL) | X (X = MPC@1 ≤ 5 μg/mL) | X (X = MPC@4 ≤ 5 μg/mL) | Y (Y = 5 μg/mL < MPC@1 ≤ 20 μg/mL) | X (X = MPC@4 ≤ 5 μg/mL) |
| O=C([O-])c1c(C(F)F)ccc2c1O[B-](O)(O)CC2.[Na+].[Na+] [Compound 50, Disodium; 8-(difluoromethyl)-4,4-dihydroxy-5-oxa-4-boranuidabicyclo[4.4.0]deca-1(6),7,9-triene-7-carboxylate] | Y (Y = 5 μg/mL < MPC@1 ≤ 20 μg/mL) | X (X = MPC@4 ≤ 5 μg/mL) | X (X = MPC@1 ≤ 5 μg/mL) | X (X = MPC@4 ≤ 5 μg/mL) | X (X = MPC@4 ≤ 5 μg/mL) | < 100 nM | X (X = Ki ≤ 0.1 μM) | X (X = Ki ≤ 0.1 μM) | < 100 nM | X (key: X = Ki ≤ 0.1 μM; Y = 0.1 μM < Ki ≤ 1 μM; Z = Ki > 1 μM) | X (X = Ki ≤ 0.1 μM) | X (X = MPC@4 ≤ 5 μg/mL) | X (X = MPC@4 ≤ 5 μg/mL) | X (X = MPC@4 ≤ 5 μg/mL) | X (X = MPC@1 ≤ 5 μg/mL) | X (X = MPC@4 ≤ 5 μg/mL) | Y (Y = 5 μg/mL < MPC@1 ≤ 20 μg/mL) | X (X = MPC@4 ≤ 5 μg/mL) |
| CS(=O)(=O)Nc1ccc2c(c1C(=O)[O-])O[B-](O)(O)CC2.[Na+].[Na+] [Compound 51, Disodium; 4,4-dihydroxy-8-(methanesulfonamido)-5-oxa-4-boranuidabicyclo[4.4.0]deca-1(6),7,9-triene-7-carboxylate] | Z (Z = MPC@1 > 20 μg/mL) | Z (Z = MPC@4 > 20 μg/mL) | X (X = MPC@1 ≤ 5 μg/mL) | X (X = MPC@4 ≤ 5 μg/mL) | Y (Y = 5 μg/mL < MPC@4 ≤ 20 μg/mL) | < 100 nM | X (X = Ki ≤ 0.1 μM) | X (X = Ki ≤ 0.1 μM) | < 100 nM | X (key: X = Ki ≤ 0.1 μM; Y = 0.1 μM < Ki ≤ 1 μM; Z = Ki > 1 μM) | X (X = Ki ≤ 0.1 μM) | Y (Y = 5 μg/mL < MPC@4 ≤ 20 μg/mL) | X (X = MPC@4 ≤ 5 μg/mL) | Z (Z = MPC@4 > 20 μg/mL) | X (X = MPC@1 ≤ 5 μg/mL) | Y (Y = 5 μg/mL < MPC@4 ≤ 20 μg/mL) | Z (Z = MPC@1 > 20 μg/mL) | X (X = MPC@4 ≤ 5 μg/mL) |
| NS(=O)(=O)Nc1ccc2c(c1C(=O)[O-])O[B-](O)(O)CC2.[Na+].[Na+] [Compound 52, Disodium; 4,4-dihydroxy-8-(sulfamoylamino)-5-oxa-4-boranuidabicyclo[4.4.0]deca-1(6),7,9-triene-7-carboxylate] | Z (Z = MPC@1 > 20 μg/mL) | X (X = MPC@4 ≤ 5 μg/mL) | X (X = MPC@1 ≤ 5 μg/mL) | X (X = MPC@4 ≤ 5 μg/mL) | Y (Y = 5 μg/mL < MPC@4 ≤ 20 μg/mL) | < 100 nM | X (X = Ki ≤ 0.1 μM) | X (X = Ki ≤ 0.1 μM) | 100 to 1000 nM | X (key: X = Ki ≤ 0.1 μM; Y = 0.1 μM < Ki ≤ 1 μM; Z = Ki > 1 μM) | X (X = Ki ≤ 0.1 μM) | X (X = MPC@4 ≤ 5 μg/mL) | Y (Y = 5 μg/mL < MPC@4 ≤ 20 μg/mL) | Z (Z = MPC@4 > 20 μg/mL) | X (X = MPC@1 ≤ 5 μg/mL) | X (X = MPC@4 ≤ 5 μg/mL) | Z (Z = MPC@1 > 20 μg/mL) | Y (Y = 5 μg/mL < MPC@4 ≤ 20 μg/mL) |
| O=C([O-])c1ccc2c(c1C(=O)[O-])O[B-](O)(O)CC2.[Na+].[Na+].[Na+] [Compound 53, Trisodium; 4,4-dihydroxy-5-oxa-4-boranuidabicyclo[4.4.0]deca-1(6),7,9-triene-7,8-dicarboxylate] | X (X = MPC@1 ≤ 5 μg/mL) | X (X = MPC@4 ≤ 5 μg/mL) | X (X = MPC@1 ≤ 5 μg/mL) | X (X = MPC@4 ≤ 5 μg/mL) | Y (Y = 5 μg/mL < MPC@4 ≤ 20 μg/mL) | < 100 nM | X (X = Ki ≤ 0.1 μM) | X (X = Ki ≤ 0.1 μM) | < 100 nM | X (key: X = Ki ≤ 0.1 μM; Y = 0.1 μM < Ki ≤ 1 μM; Z = Ki > 1 μM) | X (X = Ki ≤ 0.1 μM) | X (X = MPC@4 ≤ 5 μg/mL) | Y (Y = 5 μg/mL < MPC@4 ≤ 20 μg/mL) | Z (Z = MPC@4 > 20 μg/mL) | X (X = MPC@1 ≤ 5 μg/mL) | X (X = MPC@4 ≤ 5 μg/mL) | X (X = MPC@1 ≤ 5 μg/mL) | Y (Y = 5 μg/mL < MPC@4 ≤ 20 μg/mL) |
